Measurements from article PMC12030059, “Mechanistic Advances in the Therapeutic Application of Bixin for Lung Inflammation In Vitro and In Vivo” (Pharmaceuticals, 2025).

Columns and labels:
[1] = PAMPA-GIT permeability assay; type: in vitro ADME; details: for Papp: read-out: Experimental Pe; for Classification (intestinal permeability): by absorbed fraction; for Experimental Fa: absorbed fraction
Description: The parallel artificial membrane permeability assay (PAMPA) utilizes a 96-well plate system in a “sandwich” format, where one plate is positioned above another (PAMPA). The upper plate, known as the donor compartment, contains the compounds (test or control) dissolved in a buffered solution. […] The lipid composition of the PVDF filter varies depending on the type of permeability test. For gastrointestinal tract (GIT) permeability assessments, L-α-soy phosphatidylcholine in dodecane is used. Optical density values are measured at specified wavelengths for each compound and compared against controls. For GIT permeability, the absorbed fraction (Fa%) and permeability (Pe) are determined. […] Compounds for these assays were diluted from a 10 mM stock solution. These assays were conducted using a 1 mg/mL stock solution per compound.

[2] = ref C. Zhu et al. Eur. J. Med. Chem. 37 (2002) 399–407 [22], cited from earlier work
[3] = L-α-soy phosphatidylcholine in dodecane

| Structure (SMILES) | Papp [1, 3] | Classification (intestinal permeability) [1] | Experimental Pe [1, 3] | Experimental Fa [1] | Literature Fa ([2]; absorbed fraction) | Literature Pe ([2]; artificial membrane permeability) |
| --- | --- | --- | --- | --- | --- | --- |
| CCn1cc(C(=O)O)c(=O)c2cc(F)c(N3CCNCC3)cc21 [Norfloxacin, norfloxacin] | 1.56 ×10⁻⁶ cm/s | Medium (medium (30–69%)) |  |  |  |  |
| Nc1nc2c(ncn2COCCO)c(=O)[nH]1 [Acyclovir, acyclovir] |  |  | 0.36 10^−6 cm/s | 12.64% |  |  |
| O=c1ccc2ccccc2o1 [Coumarin, coumarin] | 25.2 ×10⁻⁶ cm/s | High (high (70–100%)) |  | 99.99% |  |  |
| CO/N=C(\C(=O)N[C@@H]1C(=O)N2C(C(=O)O)=C(CSc3nc(=O)c(=O)[nH]n3C)CS[C@H]12)c1csc(N)n1 [Ceftriaxone, ceftriaxone] | 0.53 ×10⁻⁶ cm/s | Low (low (0–29%)) |  | 18.19% | 1% | 0.1 10^−6 cm/s |
